In patent US10947196B2, “Beta adrenergic agonist and methods of using the same” (CURASEN THERAPEUTICS, INC., priority 2019, dated 2021):
Like-named read-outs stand apart in the source and are kept apart here.

Experiments:
β1-adrenergic receptor = β1-adrenergic receptor (Homo sapiens (Human), UniProt P08588); assay: cAMP Gs dynamic HTRF assay, β1 expressing CHO cells; assay type: cell-based
Description: (§1) cAMP homogeneous time-resolved fluorescence (HTRF). Compound efficacy was determined using the cAMP Gs dynamic HTRF assay (Cisbio, catalog #62AM4PEC) largely following the manufacturer's instructions, also detailed below.
(§2) Compound preparation. […] Standard serial dilution curves were 10-point, 5-fold dilutions starting from a highest concentration of 10 μM. […] Assay plates were centrifuged at 500×g for 10 seconds. Compounds and IBMX were prepared at 2× final dose to compensate for addition of cells.
(§3) Cell preparation. 1× stimulation buffer, washing PBS (Dulbecco's phosphate-buffered saline, −Mg −Ca; Caisson Labs, catalog #PBL01), assay PBS (Dulbecco's phosphate-buffered saline, +Mg, +Ca; Caisson Labs, catalog #PBL02) and Versene (0.02% EDTA disodium salt solution in PBS without calcium or magnesium; Caisson Labs, catalog #EDL01) were pre-warmed to 37° C. Cells expressing beta-adrenergic receptor were washed in washing PBS to remove growth medium and then released from the surface by incubating with Versene for 5-10 minutes at 37° C. Cells were harvested using assay PBS, counted manually by hemocytometer or by an automated cell counter, pelleted by centrifugation (200×g, 5 minutes) and resuspended in 37° C. 1× stimulation buffer to a final density of 1.5×10^6 cells/mL. 5 μL of the suspended cell solution (7500 cell total) were added to all wells of the 384 well assay plate, the assay plate was covered with an Axygen® plate seal (Corning PCR-SP) and incubated in a humidified 37° C. environment supplemented with 5% CO2 for 30 minutes.
(§4) HTRF reagent addition, reading and data analysis. After 30 minutes of cell stimulation with test compound, the assay plates were centrifuged at 500×g for 10 seconds, and incubation was stopped with the addition of 5 μL cAMP-D2 acceptor, diluted 1:21 in detection and lysis buffer 2 (Cisbio 62CL2FDF) was added to all cells. Subsequently, 5 μL Anti-cAMP-Eu Donor, diluted 1:21 in detection and lysis buffer 2, was added to cells. Plates were sealed and reactions gently ‘vortexed’ at 900 rpm on a Heidolph Titramax 1000 for at least 30 minutes at room temperature. Plates were centrifuged again at 500×g for 10 seconds, and HTRF was measured using a Tecan Spark plate reader at 50 flashes per well. […] Potency estimates (EC50) were derived from the four-parameter nonlinear regression of the concentration-effect curve and an estimate of relative efficacy was determined by comparing the magnitude of the test compound HTRF signal window (min−max dose) with the signal window of the full agonist control, isoproterenol.

β2 adrenergic receptor = β2 adrenergic receptor (Homo sapiens (Human), UniProt P07550); assay: cAMP Gs dynamic HTRF assay, β2 expressing CHO cells; assay type: cell-based
Description: as §1, §2, §3, §4

[1] = B1-AR, CHO-K cells, read-out: Average EC50 [Receptor subtype: B1-AR, Cell type: CHO-K]
[2] = B2-AR, CHO-K1 (HitHunter), read-out: Average pEC50 [Receptor subtype: B2-AR, Cell type: CHO-K1 (HitHunter)] (converted)
[3] = B2-AR, CHO-K cells, read-out: Average EC50 [Receptor subtype: B2-AR, Cell type: CHO-K]
[4] = B1-AR, CHO-K1 (HitHunter), read-out: Average pEC50 [Receptor subtype: B1-AR, Cell type: CHO-K1 (HitHunter)] (converted)

Chain of β2 adrenergic receptor (P07550 whole entry, species assumed): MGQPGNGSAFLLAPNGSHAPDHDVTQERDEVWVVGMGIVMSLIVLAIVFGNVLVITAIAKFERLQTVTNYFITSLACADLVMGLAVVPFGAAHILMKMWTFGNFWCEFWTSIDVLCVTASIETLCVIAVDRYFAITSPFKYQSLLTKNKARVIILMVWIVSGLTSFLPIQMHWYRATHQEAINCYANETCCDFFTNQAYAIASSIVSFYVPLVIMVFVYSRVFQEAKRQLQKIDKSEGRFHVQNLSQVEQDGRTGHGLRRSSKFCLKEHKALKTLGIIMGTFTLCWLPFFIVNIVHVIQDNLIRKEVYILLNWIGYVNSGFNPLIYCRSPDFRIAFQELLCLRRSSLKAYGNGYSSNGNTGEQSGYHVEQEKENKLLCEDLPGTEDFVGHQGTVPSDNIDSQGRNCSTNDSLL
Chain of β1-adrenergic receptor (P08588 whole entry, species assumed): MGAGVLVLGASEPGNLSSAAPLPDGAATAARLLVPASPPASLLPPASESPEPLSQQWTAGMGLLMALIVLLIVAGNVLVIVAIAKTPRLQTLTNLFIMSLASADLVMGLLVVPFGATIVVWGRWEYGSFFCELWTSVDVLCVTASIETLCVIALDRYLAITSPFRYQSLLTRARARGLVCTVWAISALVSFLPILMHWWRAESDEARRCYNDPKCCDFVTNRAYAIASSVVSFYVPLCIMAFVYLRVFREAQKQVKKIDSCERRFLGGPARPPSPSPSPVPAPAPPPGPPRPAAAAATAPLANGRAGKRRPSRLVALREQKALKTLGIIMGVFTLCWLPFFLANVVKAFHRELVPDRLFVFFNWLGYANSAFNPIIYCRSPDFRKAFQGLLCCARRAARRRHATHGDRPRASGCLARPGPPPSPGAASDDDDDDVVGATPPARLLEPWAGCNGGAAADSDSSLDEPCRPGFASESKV

CC(C)(C)NC[C@H](O)c1ncccc1C(F)(F)F [Compound 03-1, (S)-2-(tert-butylamino)-1-(3-(trifluoromethyl)pyridin-2-yl)ethan-1-ol]
EC50 (β1-adrenergic receptor; cAMP HTRF, read-out: β1 EC50): > 1000 nM
EC50 (β2 adrenergic receptor; cAMP HTRF, read-out: β2 EC50): > 1000 nM

CC(C)(C)NC[C@H](O)c1cc(C(F)(F)F)ccn1 [Compound 03-2]
EC50 (β1-adrenergic receptor; cAMP HTRF, read-out: β1 EC50): > 1000 nM
EC50 (β2 adrenergic receptor; cAMP HTRF, read-out: β2 EC50): 100 to 1000 nM

Cc1cccnc1[C@@H](O)CNC(C)(C)C [Compound 03-4]
EC50 (β1-adrenergic receptor; cAMP HTRF, read-out: β1 EC50): > 1000 nM
EC50 (β2 adrenergic receptor; cAMP HTRF, read-out: β2 EC50): > 1000 nM

CN(C)C(=O)c1cccc([C@@H](O)CNC(C)(C)C)n1 [Compound 03-7]
Average pEC50 [Receptor subtype: B1-AR; Cell type: CHO-K1 (HitHunter)] (β1-adrenergic receptor; B1-AR, CHO-K1 (HitHunter)): D (D < 6)
EC50 (β1-adrenergic receptor; [1]): > 1000 nM
EC50 (β2 adrenergic receptor; [2]): 100 to 1000 nM
EC50 (β2 adrenergic receptor; [3]): 100 to 1000 nM

CC1(NC[C@@H](O)c2cccc(C(F)(F)F)n2)CCC1 [Compound 03-12]
EC50 (β1-adrenergic receptor; [4]): > 1000 nM
EC50 (β1-adrenergic receptor; [1]): > 1000 nM
EC50 (β2 adrenergic receptor; [2]): 100 to 1000 nM
EC50 (β2 adrenergic receptor; [3]): 100 to 1000 nM

CC1(NC[C@@H](O)c2cccc(C(F)(F)F)n2)CC1 [Compound 03-13]
EC50 (β1-adrenergic receptor; [4]): > 1000 nM
EC50 (β1-adrenergic receptor; [1]): > 1000 nM
EC50 (β2 adrenergic receptor; [2]): > 1000 nM
EC50 (β2 adrenergic receptor; [3]): > 1000 nM

COc1ccc(C[C@@H](C)NC[C@@H](O)c2cccc(C(F)(F)F)n2)cc1 [Compound 03-16]
EC50 (β1-adrenergic receptor; [4]): 100 to 1000 nM
EC50 (β1-adrenergic receptor; [1]): 100 to 1000 nM
EC50 (β2 adrenergic receptor; [2]): 10 to 100 nM
EC50 (β2 adrenergic receptor; [3]): 10 to 100 nM

CC(C)(C)NC[C@H](O)c1cccc(C(N)=O)n1 [Compound 03-17]
Average pEC50 [Receptor subtype: B1-AR; Cell type: CHO-K1 (HitHunter)] (β1-adrenergic receptor; B1-AR, CHO-K1 (HitHunter)): D (D < 6)
EC50 (β1-adrenergic receptor; [1]): > 1000 nM
EC50 (β2 adrenergic receptor; [2]): > 1000 nM
EC50 (β2 adrenergic receptor; [3]): > 1000 nM

Cc1cc([C@H](O)CNC(C)(C)C)nc(C(F)(F)F)c1 [Compound 03-20]
EC50 (β1-adrenergic receptor; [4]): > 1000 nM
EC50 (β1-adrenergic receptor; [1]): > 1000 nM
EC50 (β2 adrenergic receptor; [2]): 100 to 1000 nM
EC50 (β2 adrenergic receptor; [3]): 100 to 1000 nM

O[C@H](CNC1Cc2ccccc2C1)c1cccc(C(F)(F)F)n1 [Compound 03-22]
EC50 (β1-adrenergic receptor; [4]): > 1000 nM
EC50 (β1-adrenergic receptor; [1]): > 1000 nM
EC50 (β2 adrenergic receptor; [2]): > 1000 nM
EC50 (β2 adrenergic receptor; [3]): > 1000 nM

CC1(NC[C@H](O)c2cccc(C(F)(F)F)n2)CCOCC1 [Compound 03-23]
EC50 (β1-adrenergic receptor; [4]): 100 to 1000 nM
EC50 (β1-adrenergic receptor; [1]): 100 to 1000 nM
EC50 (β2 adrenergic receptor; [2]): 100 to 1000 nM
EC50 (β2 adrenergic receptor; [3]): 100 to 1000 nM

O[C@@H](CNC1CCOCC1)c1cccc(C(F)(F)F)n1 [Compound 03-25]
Average pEC50 [Receptor subtype: B1-AR; Cell type: CHO-K1 (HitHunter)] (β1-adrenergic receptor; B1-AR, CHO-K1 (HitHunter)): D (D < 6)
EC50 (β1-adrenergic receptor; [1]): > 1000 nM
EC50 (β2 adrenergic receptor; [2]): > 1000 nM
EC50 (β2 adrenergic receptor; [3]): > 1000 nM

CC(C)(C)NC[C@H](O)c1cccc(-c2ccccc2)n1 [Compound 03-28]
EC50 (β1-adrenergic receptor; [4]): 10 to 100 nM
EC50 (β1-adrenergic receptor; [1]): 10 to 100 nM
EC50 (β2 adrenergic receptor; [2]): < 10 nM
EC50 (β2 adrenergic receptor; [3]): < 10 nM

CC(C)(C)NC[C@H](O)c1ccc(C#N)c(C(F)(F)F)n1 [Compound 03-30]
EC50 (β1-adrenergic receptor; [4]): 100 to 1000 nM
EC50 (β1-adrenergic receptor; [1]): 100 to 1000 nM
EC50 (β2 adrenergic receptor; [2]): 10 to 100 nM
EC50 (β2 adrenergic receptor; [3]): 10 to 100 nM

CC(C)(C)NC[C@H](O)c1cccc(Br)n1 [Compound 03-32]
EC50 (β1-adrenergic receptor; [4]): < 10 nM
EC50 (β1-adrenergic receptor; [1]): < 10 nM
EC50 (β2 adrenergic receptor; [2]): 10 to 100 nM
EC50 (β2 adrenergic receptor; [3]): 10 to 100 nM

O[C@H](CNC1CCC1)c1cccc(C(F)(F)F)n1 [Compound 03-34]
Average pEC50 [Receptor subtype: B1-AR; Cell type: CHO-K1 (HitHunter)] (β1-adrenergic receptor; B1-AR, CHO-K1 (HitHunter)): D (D < 6)
EC50 (β1-adrenergic receptor; [1]): > 1000 nM
EC50 (β2 adrenergic receptor; [2]): > 1000 nM
EC50 (β2 adrenergic receptor; [3]): > 1000 nM

CC(C)NC[C@@H](O)c1cccc(C(F)(F)F)n1 [Compound 03-36]
EC50 (β1-adrenergic receptor; [4]): > 1000 nM
EC50 (β1-adrenergic receptor; [1]): > 1000 nM
EC50 (β2 adrenergic receptor; [2]): > 1000 nM
EC50 (β2 adrenergic receptor; [3]): > 1000 nM

CC(C)(C)NC[C@@H](O)c1cccc(C(F)(F)F)n1 [Compound 03-43]
EC50 (β1-adrenergic receptor; [4]): > 1000 nM
EC50 (β1-adrenergic receptor; [1]): > 1000 nM
EC50 (β2 adrenergic receptor; [2]): 100 to 1000 nM
EC50 (β2 adrenergic receptor; [3]): > 1000 nM

Cc1cccc([C@H](O)CNC(C)(C)C)n1 [Compound 03-47]
EC50 (β1-adrenergic receptor; [4]): > 1000 nM
EC50 (β1-adrenergic receptor; [1]): > 1000 nM
EC50 (β2 adrenergic receptor; [2]): > 1000 nM
EC50 (β2 adrenergic receptor; [3]): > 1000 nM

CC(C)(C)NC[C@@H](O)c1cccc(C#N)n1 [Compound 03-48, (R)-6-(2-(tert-butylamino)-1-hydroxyethyl)picolinonitrile]
Average pEC50 [Receptor subtype: B1-AR; Cell type: CHO-K1 (HitHunter)] (β1-adrenergic receptor; B1-AR, CHO-K1 (HitHunter)): D (D < 6)
EC50 (β1-adrenergic receptor; [1]): > 1000 nM
Average pEC50 [Receptor subtype: B2-AR; Cell type: CHO-K1 (HitHunter)] (β2 adrenergic receptor; B2-AR, CHO-K1 (HitHunter)): C-D
EC50 (β2 adrenergic receptor; [3]): > 1000 nM

CC(C)c1ncccc1[C@@H](O)CNC(C)(C)C [Compound 03-51]
Average pEC50 [Receptor subtype: B1-AR; Cell type: CHO-K1 (HitHunter)] (β1-adrenergic receptor; B1-AR, CHO-K1 (HitHunter)): D (D < 6)
EC50 (β1-adrenergic receptor; [1]): > 1000 nM
EC50 (β2 adrenergic receptor; [2]): > 1000 nM
EC50 (β2 adrenergic receptor; [3]): > 1000 nM

CC(C)(C)NC[C@H](O)c1cccnc1N1CCCC1 [Compound 03-60]
Average pEC50 [Receptor subtype: B1-AR; Cell type: CHO-K1 (HitHunter)] (β1-adrenergic receptor; B1-AR, CHO-K1 (HitHunter)): D (D < 6)
EC50 (β1-adrenergic receptor; [1]): > 1000 nM
EC50 (β2 adrenergic receptor; [2]): > 1000 nM
EC50 (β2 adrenergic receptor; [3]): > 1000 nM

Cc1ccc([C@@H](O)CNC(C)(C)C)c(C2CCCC2)n1 [Compound 03-65]
EC50 (β1-adrenergic receptor; [4]): > 1000 nM
EC50 (β2 adrenergic receptor; [2]): 10 to 100 nM
